Among the data in patent US20240166652A1, “MODULATORS OF THE INTEGRATED STRESS PATHWAY” (Calico Life Sciences LLC, priority 2017, published 2024) are EC50 values, retold here.

In general, EC50 refers to the concentration that produces a half-maximal response.

Assay [1] deals with T1, eIF2B mutant B5 R113H (HEK293T ATF4-Fluc cells) (Homo sapiens, UniProt P49770+Q13144+Q9UI10, R113H).
T1 construct: endogenous in cells
Briefly: ATF4-Luc assay, VWMD eIF2B mutant B5 R113H. Particulars: 1 μg/mL tunicamycin, 7 hours. The assay is classed as cell-based. How it is done:
(§1) In order to test exemplary compounds of the invention in a cellular context, a stable VWMD cell line was first constructed. The ATF4 reporter was prepared by fusing the human full-length ATF4 5′-UTR (NCBI Accession No. BC022088.2) in front of the firefly luciferase (FLuc) coding sequence lacking the initiator methionine as described in Sidrauski et al (eLife 2013). The construct was used to produce recombinant retroviruses using standard methods and the resulting viral supernatant was used to transduce HEK293T cells, which were then subsequently selected with puromycin to generate a stable cell line.
(§2) HEK293T cells carrying the ATF4 luciferase reporter were plated on polylysine coated 384-well plates (Greiner Bio-one) at 30,000 cells per well. Cells were treated the next day with 1 μg/mL tunicamycin and 200 nM of a compound of Formula (I) for 7 hours. Luminescence was measured using One Glo (Promega) as specified by the manufacturer. Cells were maintained in DMEM with L-glutamine supplemented with 10% heat-inactivated FBS (Gibco) and Antibiotic-Antimycotic solution (Gibco).
(§3) VWMD mutations were introduced into the genome of the HEK293T ATF4-Fluc stable cell lines by using Gene Art CRISPR nuclease vector with OFP Reporter kit (ThermoFisher; see Table 3 below). Guide RNAs were designed using the CRISPR Design Tool (http://crispr.mit.edu) and ligated into the CRISPR OFP Nuclease Vector. To obtain homology directed repair (HDR) incorporating VWMD point mutations in the genome, 150 bp ssDNA ultramer oligos were synthesized by Integrated DNA Technologies containing specific mutations of interest. In addition to the VWMD mutations, the ssDNA HDR templates contained a silent mutation to the PAM site of the CRISPR gRNA sequence (to avoid further Cas9 cutting) and 75 bp of homology on each side of the mutation.
(§4) HEK293T ATF4-Fluc cells were transfected with 500 ng of the CRISPR OFP Nuclease Vector and 1 uL of 10 μM ssDNA HDR template using lipofectamine 3000 (ThermoFisher) or SF Cell Line 4D-nucleofector X Kit (Lonza) according to the manufacturer's instructions. After 2-3 days of recovery, single cells were sorted for positive OFP expression on a FACS Aria II (BD Biosciences) into wells of a 96 well plate and allowed to recover for 1-2 weeks.
(§5) The resulting clones were surveyed for CRISPR editing and HDR by harvesting the genomic DNA with the PureLink Genomic DNA kit (ThermoFisher), amplifying a […] locus near the editing site, and sequencing the amplicon. […] Typical clones obtained were hemizygous for the VWMD point mutation, with one or two alleles harboring the desired mutation, and the remaining alleles knocked out (edited to produce a premature stop codon). […]

The target of assay [2] is T2, eIF2B mutant B4 R483W (HEK293T ATF4-Fluc cells) (Homo sapiens, UniProt P49770+Q9UI10, R483W).
T2 construct: endogenous in cells
Kind of assay: ATF4-Luc assay, VWMD eIF2B mutant B4 R483W. It counts as cell-based. The note with it: 1 μg/mL tunicamycin, 7 hours. How it is done:
as §1, §2, §3, §4, §5

The test system of assay [3] is ATF4 luciferase reporter in HEK293T cells. Briefly: ATF4-Luc assay (ATF4 luciferase reporter, tunicamycin-treated HEK293T cells). The assay is classed as cell-based, human. Particulars: Homo sapiens, HEK-293T; HEK293T cells carrying the ATF4 luciferase reporter, 1 μg/mL tunicamycin, 7 hours.
The target in assay [4] is T3, eIF2B mutant B3 I346T (HEK293T ATF4-Fluc cells) (Homo sapiens, UniProt P49770+Q9NR50+Q9UI10, I346T).
T3 construct: endogenous in cells
Kind of assay: ATF4-Luc assay, VWMD eIF2B mutant B3 I346T. It counts as cell-based. The note with it: 1 μg/mL tunicamycin, 7 hours. How it is done:
as §1, §2, §3, §4, §5

In assay [5] the target is T4, eIF2B mutant B4 R357W (HEK293T ATF4-Fluc cells) (Homo sapiens, UniProt P49770+Q9UI10, R357W).
T4 construct: endogenous in cells
Kind of assay: ATF4-Luc assay, VWMD eIF2B mutant B4 R357W. It counts as cell-based. The note with it: 1 μg/mL tunicamycin, 7 hours. How it is done:
as §1, §2, §3, §4, §5

Assay [6] addresses T5, eIF2B mutant B5 R195H (HEK293T ATF4-Fluc cells) (Homo sapiens, UniProt P49770+Q13144+Q9UI10, R195H).
T5 construct: endogenous in cells
Briefly: ATF4-Luc assay, VWMD eIF2B mutant B5 R195H. It counts as cell-based. Particulars: 1 μg/mL tunicamycin, 7 hours. How it is done:
as §1, §2, §3, §4, §5

Assay [7] concerns the target T6, eIF2B mutant B1 V183F (HEK293T ATF4-Fluc cells) (Homo sapiens, UniProt P49770+Q14232+Q9UI10, V183F).
T6 construct: endogenous in cells
Briefly: ATF4-Luc assay, VWMD eIF2B mutant B1 V183F. It counts as cell-based. The note with it: 1 μg/mL tunicamycin, 7 hours. How it is done: as §1, §2, §3, §4, §5

For assay [8], the target named is T7, eIF2B mutant B3 H341Q (HEK293T ATF4-Fluc cells) (Homo sapiens, UniProt P49770+Q9NR50+Q9UI10, H341Q).
T7 construct: endogenous in cells
Kind of assay: ATF4-Luc assay, VWMD eIF2B mutant B3 H341Q. The assay is classed as cell-based. Particulars: 1 μg/mL tunicamycin, 7 hours. How it is done:
as §1, §2, §3, §4, §5

The structures appear in SMILES notation. Bounds are passed on as bounds.

T7 sequence (Q9NR50 whole entry H341Q): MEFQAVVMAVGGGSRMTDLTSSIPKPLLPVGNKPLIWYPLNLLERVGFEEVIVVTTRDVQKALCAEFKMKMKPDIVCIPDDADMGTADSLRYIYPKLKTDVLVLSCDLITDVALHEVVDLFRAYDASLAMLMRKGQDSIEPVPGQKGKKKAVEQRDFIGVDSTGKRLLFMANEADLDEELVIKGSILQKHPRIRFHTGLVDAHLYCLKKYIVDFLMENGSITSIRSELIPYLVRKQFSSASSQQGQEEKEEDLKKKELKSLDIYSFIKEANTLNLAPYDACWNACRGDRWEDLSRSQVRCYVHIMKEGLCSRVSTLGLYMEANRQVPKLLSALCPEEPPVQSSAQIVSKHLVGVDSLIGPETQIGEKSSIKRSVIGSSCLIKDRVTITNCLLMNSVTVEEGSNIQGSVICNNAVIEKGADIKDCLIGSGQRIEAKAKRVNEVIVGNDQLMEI
T7 sequence (Q14232 whole entry partner): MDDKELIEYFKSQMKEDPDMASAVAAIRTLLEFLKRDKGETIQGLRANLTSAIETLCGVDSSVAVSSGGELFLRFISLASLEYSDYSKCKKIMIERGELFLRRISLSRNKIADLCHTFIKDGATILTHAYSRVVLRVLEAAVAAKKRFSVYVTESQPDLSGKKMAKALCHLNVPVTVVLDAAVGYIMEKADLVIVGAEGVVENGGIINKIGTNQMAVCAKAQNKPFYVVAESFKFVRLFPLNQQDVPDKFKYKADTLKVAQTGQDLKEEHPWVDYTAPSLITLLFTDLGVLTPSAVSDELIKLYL
T7 sequence (P49770 whole entry): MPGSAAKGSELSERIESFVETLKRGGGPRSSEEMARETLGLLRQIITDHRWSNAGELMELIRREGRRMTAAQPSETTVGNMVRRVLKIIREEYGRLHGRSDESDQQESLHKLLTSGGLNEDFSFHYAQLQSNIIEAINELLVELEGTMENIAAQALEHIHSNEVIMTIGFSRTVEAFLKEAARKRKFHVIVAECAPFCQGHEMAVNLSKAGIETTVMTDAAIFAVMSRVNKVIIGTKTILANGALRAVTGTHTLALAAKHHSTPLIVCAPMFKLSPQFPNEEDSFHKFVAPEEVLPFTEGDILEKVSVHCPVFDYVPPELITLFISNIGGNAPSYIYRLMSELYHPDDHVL
T7 sequence (Q9UI10 whole entry): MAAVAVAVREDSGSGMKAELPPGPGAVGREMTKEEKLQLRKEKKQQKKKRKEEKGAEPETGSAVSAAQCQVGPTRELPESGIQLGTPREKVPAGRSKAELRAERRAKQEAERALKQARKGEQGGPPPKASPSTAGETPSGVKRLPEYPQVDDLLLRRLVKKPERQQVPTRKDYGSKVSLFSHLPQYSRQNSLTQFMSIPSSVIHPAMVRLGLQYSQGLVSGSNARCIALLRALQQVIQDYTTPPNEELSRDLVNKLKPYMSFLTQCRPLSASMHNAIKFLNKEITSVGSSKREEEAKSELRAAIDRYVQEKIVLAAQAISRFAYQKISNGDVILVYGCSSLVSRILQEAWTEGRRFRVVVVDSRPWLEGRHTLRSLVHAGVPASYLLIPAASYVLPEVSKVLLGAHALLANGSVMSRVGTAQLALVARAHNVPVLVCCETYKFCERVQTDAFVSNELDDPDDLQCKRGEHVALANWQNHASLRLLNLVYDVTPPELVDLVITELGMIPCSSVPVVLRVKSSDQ
T7 sequence (Q13144 whole entry partner): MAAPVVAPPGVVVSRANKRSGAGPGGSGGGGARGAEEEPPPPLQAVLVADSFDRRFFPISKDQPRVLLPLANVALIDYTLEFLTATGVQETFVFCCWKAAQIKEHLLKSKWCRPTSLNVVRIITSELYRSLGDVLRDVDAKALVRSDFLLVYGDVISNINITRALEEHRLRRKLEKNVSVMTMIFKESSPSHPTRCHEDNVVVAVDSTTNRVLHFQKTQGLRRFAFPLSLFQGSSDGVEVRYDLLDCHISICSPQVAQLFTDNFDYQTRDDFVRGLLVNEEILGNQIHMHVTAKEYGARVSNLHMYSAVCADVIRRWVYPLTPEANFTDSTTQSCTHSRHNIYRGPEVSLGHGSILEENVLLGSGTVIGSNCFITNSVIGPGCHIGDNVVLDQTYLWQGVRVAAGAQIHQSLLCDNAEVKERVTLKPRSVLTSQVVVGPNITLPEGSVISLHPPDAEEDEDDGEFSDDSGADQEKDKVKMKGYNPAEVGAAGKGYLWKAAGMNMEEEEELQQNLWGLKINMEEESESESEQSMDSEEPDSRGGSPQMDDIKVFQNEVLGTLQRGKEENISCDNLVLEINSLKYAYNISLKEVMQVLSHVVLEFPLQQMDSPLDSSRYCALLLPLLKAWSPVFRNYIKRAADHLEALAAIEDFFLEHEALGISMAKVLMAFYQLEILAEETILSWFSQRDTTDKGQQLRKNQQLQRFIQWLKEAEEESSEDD
T5 sequence (Q13144 whole entry R195H): as the sequence (Q13144 whole entry partner) above, with R195H counted along it
T5 sequence (Q14232 whole entry partner): as the sequence (Q14232 whole entry partner) above
T5 sequence (P49770 whole entry): as the sequence (P49770 whole entry) above
T5 sequence (Q9NR50 whole entry partner): as the sequence (Q9NR50 whole entry H341Q) above, with Q341H counted along it
T5 sequence (Q9UI10 whole entry): as the sequence (Q9UI10 whole entry) above
T4 sequence (Q9UI10 whole entry R357W): as the sequence (Q9UI10 whole entry) above, with R357W counted along it
T4 sequence (Q14232 whole entry partner): as the sequence (Q14232 whole entry partner) above
T4 sequence (P49770 whole entry): as the sequence (P49770 whole entry) above
T4 sequence (Q9NR50 whole entry partner): as the sequence (Q9NR50 whole entry H341Q) above, with Q341H counted along it
T4 sequence (Q13144 whole entry partner): as the sequence (Q13144 whole entry partner) above
T3 sequence (Q9NR50 whole entry I346T): as the sequence (Q9NR50 whole entry H341Q) above, with Q341H, I346T counted along it
T3 sequence (Q14232 whole entry partner): as the sequence (Q14232 whole entry partner) above
T3 sequence (P49770 whole entry): as the sequence (P49770 whole entry) above
T3 sequence (Q9UI10 whole entry): as the sequence (Q9UI10 whole entry) above
T3 sequence (Q13144 whole entry partner): as the sequence (Q13144 whole entry partner) above
T2 sequence (Q9UI10 whole entry R483W): as the sequence (Q9UI10 whole entry) above, with R483W counted along it
T2 sequence (Q14232 whole entry partner): as the sequence (Q14232 whole entry partner) above
T2 sequence (P49770 whole entry): as the sequence (P49770 whole entry) above
T2 sequence (Q9NR50 whole entry partner): as the sequence (Q9NR50 whole entry H341Q) above, with Q341H counted along it
T2 sequence (Q13144 whole entry partner): as the sequence (Q13144 whole entry partner) above
T1 sequence (Q13144 whole entry R113H): as the sequence (Q13144 whole entry partner) above, with R113H counted along it
T1 sequence (Q14232 whole entry partner): as the sequence (Q14232 whole entry partner) above
T1 sequence (P49770 whole entry): as the sequence (P49770 whole entry) above
T1 sequence (Q9NR50 whole entry partner): as the sequence (Q9NR50 whole entry H341Q) above, with Q341H counted along it
T1 sequence (Q9UI10 whole entry): as the sequence (Q9UI10 whole entry) above
T6 sequence (Q14232 whole entry V183F): as the sequence (Q14232 whole entry partner) above, with V183F counted along it
T6 sequence (P49770 whole entry): as the sequence (P49770 whole entry) above
T6 sequence (Q9NR50 whole entry partner): as the sequence (Q9NR50 whole entry H341Q) above, with Q341H counted along it
T6 sequence (Q9UI10 whole entry): as the sequence (Q9UI10 whole entry) above
T6 sequence (Q13144 whole entry partner): as the sequence (Q13144 whole entry partner) above

Take `O=C(COc1ccc(Cl)c(F)c1)NC12CCC(NC(=O)COc3ccc(Cl)c(F)c3)(CC1)[C@@H](O)C2` (single isomer, unassigned) [Compound 297]: the EC50 in assay [1], in assay [2], in assay [3], in assay [4], in assay [5] and in assay [6] was less than 10 nM in each case. Further, the 50% effective concentration (EC50) in assay [7] and in assay [8] was less than 10 nM each time.
For `O=C(COc1ccc(Cl)cc1)NC12CC(NC(=O)COc3ccc(Cl)cc3)(C1)C2` [Compound 112, N,N′-(bicyclo[1.1.1]pentane-1,3-diyl)bis[2-(4-chlorophenoxy)acetamide]], the EC50 in assay [1], in assay [2], in assay [3], in assay [4], in assay [5] and in assay [6] was less than 10 nM each time. The EC50 in assay [7] and in assay [8] was less than 10 nM each time.
For `O=C(COc1ccc(C(F)(F)F)nc1)NC12CC(NC(=O)COc3ccc(Cl)c(F)c3)(C1)C2` [Compound 175, 2-(4-chloro-3-fluorophenoxy)-N-[3-(2-{[6-(trifluoromethyl)pyridin-3-yl]oxy}acetamido)bicyclo[1.1.1]pentan-1-yl]acetamide], the EC50 in assay [1] was 10 to 50 nM; in assay [2] it was less than 10 nM; in assay [3] it was less than 10 nM; in assay [4], less than 10 nM; in assay [5], 10 to 50 nM; in assay [6], 10 to 50 nM. In addition, the concentration giving a half-maximal response (EC50) fell in the range of 50 to 250 nM in assay [7] and 10 to 50 nM in assay [8].
Regarding `Cc1noc(COCC(=O)NC23CC(NC(=O)COc4ccc(Cl)c(F)c4)(C2)C3)n1` [Compound 217, 2-(4-chloro-3-fluorophenoxy)-N-(3-{2-[(3-methyl-1,2,4-oxadiazol-5-yl)methoxy]acetamido}bicyclo[1.1.1]pentan-1-yl)acetamide], the EC50 in assay [1] is more than 2000 nM; in assay [2], more than 2000 nM; in assay [3], 500 to 2000 nM; in assay [4], 500 to 2000 nM; in assay [5], 500 to 2000 nM; in assay [6] it was 500 to 2000 nM. The concentration for a half-maximal effect (EC50) in assay [7] was more than 2000 nM; in assay [8] it was 500 to 2000 nM.
